Consider two compounds from article PMC7619385 (ACS infectious diseases, 2025).

The subject of data set [1] is L. mexicana promastigotes. Nature of the data set: Promastigote viability (Alamar Blue/resazurin). The class given is cell-based. To be noted: Leishmania mexicana. On the procedure: Next, we evaluated GZD824 ability to reduce the viability of L. mexicana promastigotes by monitoring the reduction of resazurin (Alamar Blue).[31]
L. mexicana (strain MNYC/BZ/62/M379) promastigotes were cultivated in medium 199 (M199) (Earle’s Salts - Gibco) supplemented with 10% (v/v) heat-inactivated fetal calf serum (HIFCS – Cultilab) and 1% Penicillin/Streptomycin solution (Sigma-Aldrich) at 26 °C. Phenotypic drug response assays in null mutant and point-mutation mutant lines were performed in HOMEM supplemented with 10% (v/v) heat-inactivated fetal calf serum (HIFCS – Gibco). THP-1 monocytes were differentiated in adherent macrophages with 50 ng of PMA for 72 h at 37 °C and 5% CO2 before infection with stationary phase promastigotes (ratio 10 promastigotes:1 macrophage) for 6 h, followed by washing to remove non-internalized Leishmania. Infected macrophages were incubated at 34 °C and 5% CO2 for 48 h in RPMI (Gibco) supplemented with 10% HIFCS and 1% Penicillin/Streptomycin solution.
For evaluation of drug effect on promastigote and uninfected macrophage viability, cells were cultivated in the presence of test compounds for 24 h and incubated with 10% AlamarBlue™ Cell Viability Reagent (ThermoFisher) for 24 h before measuring fluorescence at λex 540 nm/λem 590 nm. Untreated cells (1% DMSO) were set as 100 % viable cells. Intracellular amastigotes were treated with compounds for 48 h. Slides with paraformaldehyde-fixed and DAPI-stained cells were imaged on a Zeiss AxioImager microscope – at least 200 macrophages per drug concentration and DMSO control. Experiments were performed in duplicate. The total number of amastigotes was normalized by the number of macrophages counted. For EC50 determination, the data was fitted to the sigmoidal dose-response (variable slope) equation in GraphPad Prism (v.9.1.0).
Background: The colour change of resazurin is a common sign of viable cells or microbes.

Data set [2] has as its system LmxCLK1-overexpressing L. mexicana. The data set is described as follows: microbe, parasite or virus in culture. The class given is cell-based, Leishmania mexicana.
Data set [3] has as its system T790M mutant form of EGFR. To be noted: cited from earlier work.
Data set [4] relates to L. mexicana intracellular amastigotes. Nature of the data set: Intracellular amastigote viability in THP-1 macrophages (DAPI counting). The data set is classed as cell-based. The settings on record: Leishmania mexicana, macrophage-internalized amastigotes, 48 h.
Protocol: L. mexicana (strain MNYC/BZ/62/M379) promastigotes were cultivated in medium 199 (M199) (Earle’s Salts - Gibco) supplemented with 10% (v/v) heat-inactivated fetal calf serum (HIFCS – Cultilab) and 1% Penicillin/Streptomycin solution (Sigma-Aldrich) at 26 °C. […] THP-1 monocytes were differentiated in adherent macrophages with 50 ng of PMA for 72 h at 37 °C and 5% CO2 before infection with stationary phase promastigotes (ratio 10 promastigotes:1 macrophage) for 6 h, followed by washing to remove non-internalized Leishmania. Infected macrophages were incubated at 34 °C and 5% CO2 for 48 h in RPMI (Gibco) supplemented with 10% HIFCS and 1% Penicillin/Streptomycin solution.
The test system of data set [5] is L. mexicana T7/Cas9 Δclk1, Δclk2 and Cys172Ala LmxCLK1 lines. Nature of the data set: Viability of T7/Cas9 null mutant and cysteine point-mutant lines. The data set is classed as cell-based, Leishmania mexicana. To be noted: 96 h, versus parental T7/Cas9 line.
Description: Data represent mean ± SD of four independent experiments performed in triplicate. […] Data represent mean ± SD of two independent experiments performed in duplicate. […] Data represent mean ± SD of two independent experiments performed in triplicate. […] Values are mean ± SEM.
The test system of data set [6] is THP-1-derived macrophages. The settings on record: human, 24 h, 100 µM.
Protocol: For evaluation of drug effect on promastigote and uninfected macrophage viability, cells were cultivated in the presence of test compounds for 24 h and incubated with 10% AlamarBlue™ Cell Viability Reagent (ThermoFisher) for 24 h before measuring fluorescence at λex 540 nm/λem 590 nm. Untreated cells (1% DMSO) were set as 100 % viable cells. […] Experiments were performed in duplicate.
Where [7] appears, read: 48 h compound exposure, read-out: EC50 promastigote viability.

Structures are written as SMILES. pEC50: −log10 of the molar value. Like-named read-outs stand apart in the source and are kept apart here.

One may read the pEC50 as the EC50 on a negative log10 scale, so that one unit is a factor of ten. For `Cc1ccc(C(=O)Nc2ccc(CN3CCN(C)CC3)c(C(F)(F)F)c2)cc1C#Cc1cnc2[nH]ncc2c1` [GZD824], in data set [1] (setting [7]), the pEC50 was 4.48.
`C=CC(=O)Nc1cccc(Sc2nc(Nc3ccc(N4CCN(C)CC4)cc3)ncc2Cl)c1` [WZ8040]: the pEC50 in data set [2] (Leishmania mexicana, read-out: EC50 LmxCLK1-overexpressing parasites) is 4.75; in data set [4], 5.68; in data set [1] (setting [7]), 5.10; in data set [1] (wild-type comparator of the overexpression experiment (Figure 6D), read-out: EC50 wild-type parasites) it was 5.25. The “Reduction of parasite sensitivity by LmxCLK1 overexpression” value in data set [2] (compared to wild-type parasites) was “approximately 3 fold”. Moreover, in data set [3], the “Selectivity for T790M mutant EGFR compared to wild-type enzyme” value is reported as “over 10 fold”. Besides, the “Sensitivity of Δclk1 line” value in data set [5] was “significantly enhanced sensitivity”. The “Reduction in macrophage viability” value in data set [6] is ~ 15%.
